Measured values as given in PubChem BioAssay (NCI).
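96-well plates; 48 h exposure; 5 concentrations. Endpoints by linear interpolation between flanking doses. Not reached: highest tested concentration assigned. TGI: concentration producing complete growth inhibition.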

Key:
Assay in all cases: NCI tumour cell line growth inhibition, 48 h
RPMI-8226 leukemia = tested on: RPMI-8226 leukemia
HS 578T breast = tested on: HS 578T breast
MDA-N = tested on: MDA-N
SF-295 CNS = tested on: SF-295 CNS
HCC-2998 colon = tested on: HCC-2998 colon
M14 melanoma = tested on: M14 melanoma
DU-145 prostate = tested on: DU-145 prostate
SW-620 colon = tested on: SW-620 colon
COLO 205 colon = tested on: COLO 205 colon
SN12C renal = tested on: SN12C renal

Structure (SMILES) | TGI (RPMI-8226 leukemia) [µM] | TGI (HS 578T breast) [µM] | TGI (MDA-N) [µM] | TGI (SF-295 CNS) [µM] | TGI (HCC-2998 colon) [µM] | TGI (M14 melanoma) [µM] | TGI (DU-145 prostate) [µM] | TGI (SW-620 colon) [µM] | TGI (COLO 205 colon) [µM] | TGI (SN12C renal) [µM]
CSc1c(C#N)c(N)nc2c(N=Nc3ccc(Cl)cc3)c(N)nn12 | 7.12 | 3.43 | 23.4 | 62.3 | 14.8 | 47.6 | 5.7 | 4.49 | 30.3 | 8.1
CCCCN1C(=O)c2c(-c3sccc3N)sc(-c3sccc3N)c2C1=O | 55 | 83.6 | > 34.6 | 58 | > 100 | > 100 | > 100 | > 100 | > 46.7 | > 55
Cn1c(-c2ccccc2)cc2c3ccsc3c3ccsc3c21 | > 100 | > 100 | > 100 | > 100 | > 100 | > 100 | > 100 | > 100 | > 100 | > 100
O=C(CCCCCCC(=O)Nc1cccnc1)NO | > 29.4 | > 95.3 | > 25.6 | > 100 | 54.5 | > 56 | > 31.5 | > 100 | > 20.5 | > 38.8
O=C1/C(=C/c2ccccc2O)N=C(c2ccccc2)N1c1nc2ccccc2s1 | 49.3 | 58.4 | 8.55 | 87.1 | 35.4 | 85.6 | > 100 | > 100 |  | 
Brc1ccc2c([C@H]3CN[C@@H](c4c[nH]c5cc(Br)ccc45)CN3)c[nH]c2c1 | 7.15 | 25.2 | 3.04 | 19.3 | 3.02 | 5.91 | 9.98 | 3.28 | 2.91 | 12.4
CCOC(=O)NC(NC1=NCCS1)(C(=O)OCC)C(F)(F)F (configuration not stated) | > 100 | > 100 | > 100 | > 100 | > 100 | > 100 | > 100 | > 100 | > 100 | > 100
CCOC(=O)C(Cl)(NC(=O)c1c(F)c(F)c(F)c(F)c1F)C(F)(F)F (configuration not stated) | > 100 | > 100 | > 100 | > 100 | > 100 | > 100 | > 100 | > 100 | > 100 | > 100
COc1ccc2oc(OC)c(CC=C(C)C)c(=O)c2c1C | > 100 | > 100 | > 100 | > 100 | > 100 | > 100 | > 100 | > 100 | > 100 | > 100
Cc1ccc(-n2[nH]nc(C#N)c2=O)cc1 | > 100 | > 100 | > 100 | > 100 | > 100 | > 100 | > 100 | > 100 | > 100 | > 100
CC(C)C1=CCC2C(=C1)CCC1C(C)(C(=O)O)CCCC21C (configuration not stated) (tested in a mixture with another compound) | 70.2 | > 100 | > 100 | > 100 | > 100 | > 100 | > 100 | > 100 | > 100 | > 100
NCCCNC1(c2cc3ccccc3s2)CCCCC1 | 5.88 | 30.2 | 3.56 | 24.8 | 2.98 | 3.51 | 24.8 | 21.2 | 3.45 | 22.8
CC1OC2(CC(OCc3ccccc3)C1OCc1ccccc1)OCCO2 (configuration not stated) | > 100 | > 100 | > 100 | > 100 | > 100 | > 100 | > 100 | > 100 | > 100 | > 100
O=c1[nH]c(Nc2cc(Cl)cc(Cl)c2)nc2nc[nH]c12 | > 75 | 68.5 | > 75 | > 75 | > 75 | > 75 | > 75 | > 75 | > 75 | > 75
Cc1cc(C)nc(SC(C)C(=O)N/N=C/c2ccc(OCc3ccccc3)cc2)n1 (configuration not stated) | 41.9 | > 100 | > 100 | > 100 | > 100 | > 100 | > 100 | > 100 | 91.6 | > 100
O=C1CCCC/C1=C\c1ccc(Br)cc1 | 57.3 | 52.3 | 38.3 | 49.7 | 44.4 | 26.1 | > 100 | > 100 | 32.8 | 41.5
COc1ccc(/C=C2\N=C(c3ccccc3)N(N=C3NC(=O)CC(=O)N3)C2=O)cc1 | > 100 | > 100 | > 100 |  | > 100 | > 100 | > 100 | > 100 | > 100 | > 100
COC(=O)C1=C(O)C(C(=O)OC)[C@]2(O)[C@H](C(=O)OC)[C@H]1C[C@@H](c1c(Cl)cccc1Cl)[C@H]2C(=O)OC (some centres not stated) | 3.38 | 27.3 | 3.02 | 7.57 | 3.03 | 2.88 | 8.2 | 11 | 4.37 | 5.2
C/C(=C/C(=O)Nn1c(Cc2ccccc2)n[nH]c1=O)C(=O)O | > 100 | > 100 | > 100 | > 100 | > 100 | > 100 | > 100 | > 100 | > 100 | > 100
COC(=O)/C=C/c1ccc2c(c1)CC1(C2)Cc2cc3c(cc2C1=O)CCC3 (configuration not stated) | > 100 | 78.9 | > 100 | > 100 | > 100 | > 100 | > 100 | > 100 | > 100 | > 100
CCOC(=O)c1c(N2CCCC2)[nH]c(=O)c(C(c2ccco2)c2c(O)c(C(=O)OCC)c(N3CCCC3)[nH]c2=O)c1O | > 100 | > 100 | > 100 | > 100 | > 100 | > 100 | > 100 | > 100 | > 100 | > 100
CC1C2CC(C(S(=O)(=O)N3CCOCC3)/C2=N\O)C1(C)C (configuration not stated) | > 100 | > 100 | > 100 | > 100 | > 100 | > 100 | > 100 | > 100 | > 100 | > 100

Structure (SMILES) | TGI (RPMI-8226 leukemia) [µM] | TGI (HS 578T breast) [µM] | TGI (MDA-N) [µM] | TGI (SF-295 CNS) [µM] | TGI (HCC-2998 colon) [µM] | TGI (M14 melanoma) [µM] | TGI (DU-145 prostate) [µM] | TGI (SW-620 colon) [µM] | TGI (COLO 205 colon) [µM] | TGI (SN12C renal) [µM]
Cc1cc(NC[C@H](O)[C@H](O)[C@H](O)CO)c(Sc2cc(=O)[nH]c(=O)[nH]2)cc1C | > 62.5 | > 62.5 | > 62.5 | > 62.5 | > 62.5 | > 62.5 | > 62.5 | > 62.5 | > 62.5 | > 62.5
N#C/C(=C\NC(=S)c1ccncc1)c1nc2ccccc2s1 | > 100 | > 100 | > 100 | > 100 | > 100 | > 100 | > 100 | > 100 | > 100 | > 100
c1ccc2c(c1)ncn2C1CCCCO1 (configuration not stated) | > 100 | > 100 | > 100 | > 100 | > 100 | > 100 | > 100 | > 100 | > 100 | > 100
CC(=O)N(O)[C@@H]1CC[C@H](n2cnc3c(N)ncnc32)C1 | > 100 | > 100 | > 100 | > 100 | > 100 | > 100 | > 100 | > 100 | > 100 | > 100
Cc1cc(Cc2c(F)c(F)c(C(c3cc(C)no3)c3c(F)c(F)c(F)c(F)c3F)c(F)c2F)on1 (configuration not stated) | > 100 | > 100 | 15.1 | > 100 | > 100 | > 100 | > 100 | > 100 | > 100 | > 100
CCOc1ccc(/C=N/[N+](C)(C)C)cc1OCC | > 10 | > 10 | > 10 | > 10 | > 10 | > 10 | > 10 | > 10 | > 10 | > 10
O=C(Cc1nccc2c1[nH]c1ccccc12)OC1C#CCSCC#C/C=C\1 (configuration not stated) | > 100 | > 100 | > 100 | > 100 | > 100 | > 100 | > 100 | > 100 | > 100 | > 100
Nc1nc(Cl)cc(NCCC2(CO)CCC2)n1 | > 100 | > 100 | > 100 | > 100 | > 100 | > 100 | > 100 | > 100 | > 100 | > 100
Cc1noc2nnn(-c3ccc(Cl)cc3)c(=O)c12 | 3.11 | > 60.3 | 17.9 | 27.8 | 9.7 | 25.4 | 14.3 | 5.41 | 11.9 | 12.2
CCOC(=O)c1ccc(C(=O)/C(C(C)=O)=C2\CCCN2C)n1C | > 100 | > 100 | > 100 | > 100 | > 100 | > 100 | > 100 | > 100 | > 100 | > 100
Cn1c2ccccc2c2c(=O)[nH]c(=O)[nH]c21 | > 100 | > 100 | > 100 | > 100 | > 100 | > 100 | > 100 | > 100 | > 100 | > 100
Fc1ccc2nc3n(c2c1)C(c1c(Cl)cccc1Cl)SC3 (configuration not stated) | > 100 | > 100 | > 100 | > 100 | > 100 | > 100 | > 100 | > 100 | > 100 | > 100
COc1ccc(/C=C2\CCC(CNc3ccc(OC)cc3)C2=O)cc1 (configuration not stated) | > 24 | > 100 | 30.8 | > 31.6 | 48.1 | 34.9 | > 65.4 | 12.9 | 31.9 | 33.1
O=C(/C=C/c1cc(O)c(O)cc1O)OCCc1ccccc1 | > 46 | > 93.9 | 20.2 | > 82.3 | > 100 | 32.7 | > 85.1 | 21.2 | 25.7 | 22.1
O=C/C=C/c1ccco1 | > 100 | > 100 | > 100 | > 100 | > 100 | > 100 | > 100 | > 100 | > 100 | > 100
CCSc1cc(=O)n(C)c(=O)n1C | > 100 | > 100 | > 100 | > 100 | > 100 | > 100 | > 100 | > 100 | > 100 | > 100
O=C(/C=C/c1ccc(/C=C/C(=O)c2ccc(O)cc2)cc1)c1ccc(O)cc1 | > 100 | > 100 | > 100 | > 100 | > 100 | > 100 | > 100 | > 100 | > 100 | > 100
CC1(CCCO)CCCCCCCCCC(C)(CCCO)C1=O (configuration not stated) | > 100 | > 100 | > 100 | > 100 | > 100 | > 100 | > 100 | > 100 | > 100 | > 100
C#CC1(O)C(COP(=O)(O)OCC2OC(n3ccc(NCCCCCCCCCCCCCCCCCC)nc3=O)C(O)C2O)OC(n2ccc(N)nc2=O)C1O (configuration not stated) | > 73.8 | 45.2 | 70.6 | 18.6 | > 34.5 | 15.2 | > 100 | > 50 | > 32.9 | 39.9
NC1CC2NC3CCCCC3NC2CC1N (configuration not stated) | > 100 | > 100 | > 100 | > 100 | > 100 | > 100 | > 100 | > 100 | > 100 | > 100
CCCCCCCCCCCCCC[S+](C)C | 2.65 | 3.78 | 4.15 | > 10 | 3.49 | 3.57 | > 10 | > 10 | 2.97 | 3.24
